From patent publication US10478425B2, “5-phenylazaindole derivative having AMPK-activating activity” (Shionogi & Co., Ltd., priority 2016, dated 2019)

Biological target: T1, Human AMPK α2β2γ1 (Homo sapiens, UniProt O43741+P54646)
T1 construct: The full length cDNAs of human AMPK β2 (NM_005399.3) and human AMPK α2 (NM_006252.3); The full length cDNAs of human AMPK β2 (NM_005399.3); the full length cDNA of human AMPK γ1 (NM_002733.3) had been inserted into pET28b(+); 6×His (N); made in house; host or cells: Escherichia coli BL21 CodonPlus (DE3)-RIL
T1 sequence (P54646 whole entry): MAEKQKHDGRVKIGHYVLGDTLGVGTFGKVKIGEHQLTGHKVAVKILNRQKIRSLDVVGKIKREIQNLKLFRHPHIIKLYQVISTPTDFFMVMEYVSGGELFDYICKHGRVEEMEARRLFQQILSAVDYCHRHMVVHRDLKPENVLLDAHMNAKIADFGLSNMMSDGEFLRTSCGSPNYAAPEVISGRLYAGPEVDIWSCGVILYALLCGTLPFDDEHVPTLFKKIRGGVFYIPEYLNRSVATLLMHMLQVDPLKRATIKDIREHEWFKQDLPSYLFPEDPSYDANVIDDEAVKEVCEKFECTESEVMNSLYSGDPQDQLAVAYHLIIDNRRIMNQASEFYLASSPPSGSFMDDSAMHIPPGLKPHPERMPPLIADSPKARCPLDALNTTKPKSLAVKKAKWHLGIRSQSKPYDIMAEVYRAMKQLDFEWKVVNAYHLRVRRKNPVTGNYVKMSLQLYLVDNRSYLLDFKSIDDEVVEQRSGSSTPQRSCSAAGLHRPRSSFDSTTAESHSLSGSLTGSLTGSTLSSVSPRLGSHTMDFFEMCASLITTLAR
T1 sequence (O43741 whole entry): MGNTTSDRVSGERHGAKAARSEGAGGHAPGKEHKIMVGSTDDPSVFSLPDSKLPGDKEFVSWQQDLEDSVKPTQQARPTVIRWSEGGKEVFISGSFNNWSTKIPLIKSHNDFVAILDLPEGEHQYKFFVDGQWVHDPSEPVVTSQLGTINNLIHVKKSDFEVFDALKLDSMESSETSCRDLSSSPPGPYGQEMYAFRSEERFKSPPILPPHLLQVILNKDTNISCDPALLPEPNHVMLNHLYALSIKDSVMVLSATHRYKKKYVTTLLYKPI
T1 sequence (P54619 whole entry partner): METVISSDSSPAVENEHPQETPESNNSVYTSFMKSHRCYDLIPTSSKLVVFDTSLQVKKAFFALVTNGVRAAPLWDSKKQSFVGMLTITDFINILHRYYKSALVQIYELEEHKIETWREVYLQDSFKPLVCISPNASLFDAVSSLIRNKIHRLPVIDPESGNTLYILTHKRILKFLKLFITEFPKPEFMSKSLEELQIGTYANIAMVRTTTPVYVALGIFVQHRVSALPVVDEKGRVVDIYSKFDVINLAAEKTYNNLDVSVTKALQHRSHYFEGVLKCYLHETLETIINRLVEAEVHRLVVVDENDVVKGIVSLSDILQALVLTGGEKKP
Assay: Test Example 2: activation of phosphorylated human AMPK α2β2γ1 (mobility-shift kinase assay, FL-Peptide 7)
Assay type: biochemical
Details: for EC150: compound concentration showing 150% relative to the control (100%), human AMPK α2β2γ1 phosphorylated with CaMKK2; for Emax: maximum rate of increase in activity within the measurement range, control = 100%, read-out: Emax
Protocol: The full length cDNAs of human AMPK β2 (NM_005399.3) and human AMPK α2 (NM_006252.3) were inserted into the MCS1 and MCS2 of the pETDuet-1 vector to prepare a human AMPK β2 and human AMPK α2 (6×His tag at the 5′ terminus) expressing plasmid. The plasmid was cotransfected with an expression plasmid, in which the full length cDNA of human AMPK γ1 (NM_002733.3) had been inserted into pET28b(+), into BL21 CodonPlus (DE3)-RIL to obtain an expression strain. The expression strain was cultured in TB medium, followed by induction with 0.5 mM IPTG, and cultured at 25° C. for 3 hours and then harvested. After ultrasonication, supernatant was collected and applied to Histrap FF column (GE) and RESOUECE Q column (GE) to prepare 12.5 mg of purified sample containing three types of subunit from 1.8 L of broth.
An expression vector, in which the full length cDNA of human CAMKK β (NM_172226.1) had been inserted into pGEX-6P-3, was transfected into BL21 Star (DE3). The expression strain was cultured in TB medium, followed by induction with 0.5 mM IPTG, and cultured at 25° C. for 3 hours and then harvested. After ultrasonication, supernatant was collected and applied to GSTrap FF column (GE) to prepare 14 mg of GST-fused CAMKK β from 720 ml of broth.
Thus, phosphorylation treatment was carried out as pretreatment.
Human AMPK α2β2γ1 in an amount to give a conversion rate of approximately 10% by reaction for 2 hours, and CaMKK2 in an amount capable of sufficiently imparting activity to AMPK for one hour were mixed in a buffer solution consisting of a 50 mM HEPES-NaOH buffer solution (pH 7.0), 100 mM NaCl, 5 mM magnesium chloride, 0.1% bovine serum albumin, 0.2 mM sodium orthovanadate(V), 1 mM ethylene glycol-bis(2-aminoethyl ether)-N,N,N′,N′-tetraacetic acid (EGTA), 5 mM disodium β-glycerophosphate, 1 mM dithiothreitol and 0.2 mM ATP, and the resulting liquid was left to stand at 25° C. for 1 to 1.5 hours to sufficiently phosphorylate AMPK.
After that, to the enzyme liquid, which had been subjected to phosphorylation treatment, a compound dissolved in DMSO was added so as to have a 1% DMSO concentration. The resulting liquid was left to stand for 10 minutes.
To the liquid, a substrate solution consisting of a 50 mM HEPES-NaOH buffer solution (pH 7.0), 100 mM NaCl, 10 mM magnesium chloride, 0.1% bovine serum albumin, 0.2 mM sodium orthovanadate(V), 1 mM ethylene glycol-bis(2-aminoethyl ether)-N,N,N′,N′-tetraacetic acid (EGTA), 5 mM disodium β-glycerophosphate, 2 mM dithiothreitol, 0.4 mM ATP and 3 μM FL-Peptide 7 (manufactured by Caliper Life Sciences, Inc.) was added in equal amount (10 μl in total). The resulting liquid was allowed to react at 25° C. for 2 hours, then 10 μl of 20 mM EDTA was added thereto to stop the reaction.
To detect phosphorylated fluorescent substrates, the reaction mixture was applied to a measuring device, LabChip EZ Reader II manufactured by Caliper Life Science, Inc., for detecting fluorescence by using differences in mobility due to differences in charge. The setting conditions for the device were pressure, −1.5 PSI; upstream voltage, −2250 V; downstream voltage, −400 V; post sample buffer sip time, 40 seconds; final delay, 120 seconds; and peak order, Product First.
A conversion rate was calculated from the peak heights of the obtained substrate and product. The conversion rate when not containing a compound was used as a control, and a concentration dependent curve was made by plotting the rate of increase in activity to the control at each concentration of a compound.

Row | SMILES | EC150 [nM] | Emax [%]
1 | COC(=O)N[C@H]1CC[C@H](c2ccc(-c3nc4cc(O[C@@H]5CO[C@H]6[C@@H]5OC[C@H]6O)[nH]c4cc3F)cc2)CC1 [Compound I-1-39] | 13 | 552
2 | CCC(=O)NC1CC(c2ccc(-c3nc4cc(O[C@@H]5CO[C@H]6[C@@H]5OC[C@H]6O)[nH]c4cc3F)cc2)C1 (stereo partly drawn) [Compound I-1-40] | 29 | 541
3 | CC(=O)N[C@H]1CC[C@H](c2ccc(-c3nc4cc(O[C@@H]5CO[C@H]6[C@@H]5OC[C@H]6O)[nH]c4cc3F)cc2)CC1 [Compound I-1-41] | 7.8 | 562
4 | O=S1(=Nc2ccc(-c3ccc(-c4nc5cc(O[C@@H]6CO[C@H]7[C@@H]6OC[C@H]7O)[nH]c5cc4F)cc3)cc2)CCOCC1 [Compound I-1-42] | 5.3 | 472
5 | COC(=O)N1CC=C(c2ccc(-c3nc4cc(O[C@@H]5CO[C@H]6[C@@H]5OC[C@H]6O)[nH]c4cc3F)cc2)CC1 [Compound I-1-43] | 7 | 514
6 | CS(=O)(=O)N[C@H]1CC[C@H](c2ccc(-c3nc4cc(O[C@@H]5CO[C@H]6[C@@H]5OC[C@H]6O)[nH]c4cc3F)cc2)CC1 [Compound I-1-45] | 19 | 482
7 | CS(C)(=O)=Nc1ccc(-c2ccc(-c3nc4cc(O[C@H]5CCOC5)[nH]c4cc3F)cc2)cc1 [Compound I-1-46] | 6.6 | 276
8 | Cc1cc(-c2ccc(N=S(C)(C)=O)cc2)ccc1-c1nc2cc(O[C@@H]3CO[C@H]4[C@@H]3OC[C@H]4O)[nH]c2cc1F [Compound I-1-48] | 2.9 | 576
9 | CNC(=O)OC1CCN(c2ccc(-c3nc4cc(O[C@@H]5CO[C@H]6[C@@H]5OC[C@H]6O)[nH]c4cc3F)cc2)CC1 [Compound I-1-49] | 19 | 551
10 | CN(C)C(=O)OC1CCN(c2ccc(-c3nc4cc(O[C@@H]5CO[C@H]6[C@@H]5OC[C@H]6O)[nH]c4cc3F)cc2)CC1 [Compound I-1-50] | 23 | 539
11 | O[C@@H]1CO[C@H]2[C@@H]1OC[C@H]2Oc1cc2nc(-c3ccc(C4=CCN(C5=NCCO5)CC4)cc3)c(F)cc2[nH]1 [Compound I-1-51] | 12 | 486
12 | NC(=O)c1ccc(-c2ccc(-c3nc4cc(O[C@@H]5CO[C@H]6[C@@H]5OC[C@H]6O)[nH]c4cc3F)cc2)cc1F [Compound I-1-52] | 2.2 | 469
13 | CS(=O)(=O)Nc1ccc(-c2ccc(-c3nc4cc(O[C@@H]5CO[C@H]6[C@@H]5OC[C@H]6O)[nH]c4cc3F)cc2)cc1 [Compound I-1-53] | 1.6 | 533
14 | CNC(=O)c1ccc(-c2ccc(-c3nc4cc(O[C@@H]5CO[C@H]6[C@@H]5OC[C@H]6O)[nH]c4cc3F)cc2)cc1F [Compound I-1-54] | 3.3 | 416
15 | CNC(=O)c1ccc(-c2ccc(-c3nc4cc(O[C@@H]5CO[C@H]6[C@@H]5OC[C@H]6O)[nH]c4cc3F)cc2)cc1 [Compound I-1-55] | 0.34 | 431
16 | COC(=O)N1CCN(c2ccc(-c3nc4cc(O[C@@H]5CO[C@H]6[C@@H]5OC[C@H]6O)[nH]c4cc3F)cc2)CC1 [Compound I-1-57] | 32 | 550
17 | O=C1NCCN1c1ccc(-c2ccc(-c3nc4cc(O[C@@H]5CO[C@H]6[C@@H]5OC[C@H]6O)[nH]c4cc3F)cc2)cc1 [Compound I-1-58] | 1.3 | 494
18 | OC1CCN(c2ccc(-c3ccc(-c4nc5cc(O[C@@H]6CO[C@H]7[C@@H]6OC[C@H]7O)[nH]c5cc4F)cc3)cc2)C1 (stereo partly drawn) [Compound I-1-59] | 2.9 | 470
